Tests used:
Experiment in all cases: radiometric filter-binding kinase assay, Kinase HotSpot
Conditions in all cases: compound 0.5 µM; ATP 10 µM
[1] = molecular target: BLK (human) (UniProt P51451)
[2] = molecular target: MYLK (human) (UniProt Q15746)
[3] = molecular target: EPHA2 (human) (UniProt P29317)
[4] = molecular target: SYK (human) (UniProt P43405)
[5] = molecular target: DCLK2 (human) (UniProt Q8N568)
[6] = molecular target: NTRK2 (human) (UniProt Q16620)
[7] = molecular target: PASK (human) (UniProt Q96RG2)
[8] = molecular target: NLK (human) (UniProt Q9UBE8)
[9] = molecular target: DYRK1B (human) (UniProt Q9Y463)
[10] = molecular target: STK11 (human) (UniProt Q15831)
[11] = molecular target: MAPK9 (human) (UniProt P45984)
[12] = molecular target: CHEK1 (human) (UniProt O14757)
[13] = molecular target: NEK6 (human) (UniProt Q9HC98)
[14] = molecular target: MAPK13 (human) (UniProt O15264)
[15] = molecular target: CDK9 CCNT1 (human) (UniProt P50750+O60563)
[16] = molecular target: CAMK1 (human) (UniProt Q14012)
[17] = molecular target: TGFBR2 (human) (UniProt P37173)
[18] = molecular target: IRAK4 (human) (UniProt Q9NWZ3)
[19] = molecular target: PKN1 (human) (UniProt Q16512)
[20] = molecular target: JAK2 JH1 JH2 (human) (UniProt O60674)
[21] = molecular target: KDR (human) (UniProt P35968)
[22] = molecular target: ADRBK2 (human) (UniProt P35626)
[23] = molecular target: FES (human) (UniProt P07332)
[24] = molecular target: MLTK (human) (UniProt Q9NYL2)
[25] = molecular target: RET (human) (UniProt P07949)
[26] = molecular target: DYRK4 (human) (UniProt Q9NR20)
[27] = molecular target: CLK2 (human) (UniProt P49760)
[28] = molecular target: DYRK2 (human) (UniProt Q92630)
[29] = molecular target: AKT3 (human) (UniProt Q9Y243)
[30] = molecular target: TGFBR1 (human) (UniProt P36897)
[31] = molecular target: RIPK2 (human) (UniProt O43353)
[32] = molecular target: CSNK1A1 (human) (UniProt P48729)
[33] = molecular target: TAOK1 (human) (UniProt Q7L7X3)
[34] = molecular target: CAMK1G (human) (UniProt Q96NX5)
[35] = molecular target: ADRBK1 (human) (UniProt P25098)
[36] = molecular target: FLT1 (human) (UniProt P17948)
[37] = molecular target: TBK1 (human) (UniProt Q9UHD2)
[38] = molecular target: CDK7 CCNH MNAT1 (human) (UniProt P50613+P51948+P51946)
[39] = molecular target: MAPK3 (human) (UniProt P27361)
[40] = molecular target: STK16 (human) (UniProt O75716)
[41] = molecular target: ERBB4 (human) (UniProt Q15303)
[42] = molecular target: FGFR2 (human) (UniProt P21802)

Sequence of BLK (human) (P51451 whole entry, looked up): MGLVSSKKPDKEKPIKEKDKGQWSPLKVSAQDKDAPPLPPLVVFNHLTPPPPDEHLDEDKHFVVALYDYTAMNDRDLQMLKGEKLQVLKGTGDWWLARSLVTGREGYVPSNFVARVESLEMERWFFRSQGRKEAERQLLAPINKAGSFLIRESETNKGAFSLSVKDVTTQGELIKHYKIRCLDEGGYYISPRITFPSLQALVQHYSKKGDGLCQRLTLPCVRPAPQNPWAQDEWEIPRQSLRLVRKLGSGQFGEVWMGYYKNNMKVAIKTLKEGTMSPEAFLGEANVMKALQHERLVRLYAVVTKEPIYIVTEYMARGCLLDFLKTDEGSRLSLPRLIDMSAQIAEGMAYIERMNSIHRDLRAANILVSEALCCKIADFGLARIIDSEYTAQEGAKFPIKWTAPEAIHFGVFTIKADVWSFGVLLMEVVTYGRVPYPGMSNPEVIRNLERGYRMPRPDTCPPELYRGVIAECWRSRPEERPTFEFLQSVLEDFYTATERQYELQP
Sequence of JAK2 JH1 JH2 (human) (O60674 whole entry, looked up): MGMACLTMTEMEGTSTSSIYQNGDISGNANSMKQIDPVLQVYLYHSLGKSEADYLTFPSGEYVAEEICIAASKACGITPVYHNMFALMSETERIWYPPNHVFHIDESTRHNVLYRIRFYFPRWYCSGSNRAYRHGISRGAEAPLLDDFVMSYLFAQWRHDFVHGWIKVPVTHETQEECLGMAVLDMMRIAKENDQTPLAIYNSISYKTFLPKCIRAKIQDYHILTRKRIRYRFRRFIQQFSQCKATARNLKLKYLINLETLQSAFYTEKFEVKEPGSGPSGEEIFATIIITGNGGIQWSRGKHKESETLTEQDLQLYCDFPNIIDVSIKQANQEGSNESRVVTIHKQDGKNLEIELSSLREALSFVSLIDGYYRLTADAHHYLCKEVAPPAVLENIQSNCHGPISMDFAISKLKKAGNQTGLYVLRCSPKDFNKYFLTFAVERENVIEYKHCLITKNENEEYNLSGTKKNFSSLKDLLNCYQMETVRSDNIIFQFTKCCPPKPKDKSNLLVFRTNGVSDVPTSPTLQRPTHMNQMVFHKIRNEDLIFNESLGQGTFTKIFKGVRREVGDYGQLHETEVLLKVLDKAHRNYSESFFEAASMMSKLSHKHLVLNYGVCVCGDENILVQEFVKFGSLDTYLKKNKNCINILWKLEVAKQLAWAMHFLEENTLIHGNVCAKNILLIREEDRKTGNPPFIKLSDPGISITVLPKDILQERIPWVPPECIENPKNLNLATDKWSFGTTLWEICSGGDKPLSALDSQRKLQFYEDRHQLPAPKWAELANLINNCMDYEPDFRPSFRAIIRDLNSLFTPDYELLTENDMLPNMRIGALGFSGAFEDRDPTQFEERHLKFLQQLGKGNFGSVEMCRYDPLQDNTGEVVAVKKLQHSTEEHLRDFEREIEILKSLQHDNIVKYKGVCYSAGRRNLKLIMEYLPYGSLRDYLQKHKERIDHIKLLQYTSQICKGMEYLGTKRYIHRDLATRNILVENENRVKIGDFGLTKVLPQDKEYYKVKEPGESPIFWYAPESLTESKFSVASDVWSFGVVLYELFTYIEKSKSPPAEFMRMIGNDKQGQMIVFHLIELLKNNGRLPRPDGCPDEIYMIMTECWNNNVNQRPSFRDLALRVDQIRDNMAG
Sequence of CSNK1A1 (human) (P48729 whole entry, looked up): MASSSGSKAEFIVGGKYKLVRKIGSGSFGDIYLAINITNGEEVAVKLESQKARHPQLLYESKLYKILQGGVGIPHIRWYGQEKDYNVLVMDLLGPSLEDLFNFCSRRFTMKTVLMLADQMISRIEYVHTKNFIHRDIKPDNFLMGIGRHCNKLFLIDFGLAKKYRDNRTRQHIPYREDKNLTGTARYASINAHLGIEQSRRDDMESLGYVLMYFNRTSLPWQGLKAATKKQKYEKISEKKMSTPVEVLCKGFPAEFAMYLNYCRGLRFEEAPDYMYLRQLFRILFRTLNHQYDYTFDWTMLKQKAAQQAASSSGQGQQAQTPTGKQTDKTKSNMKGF
Sequence of AKT3 (human) (Q9Y243 whole entry, looked up): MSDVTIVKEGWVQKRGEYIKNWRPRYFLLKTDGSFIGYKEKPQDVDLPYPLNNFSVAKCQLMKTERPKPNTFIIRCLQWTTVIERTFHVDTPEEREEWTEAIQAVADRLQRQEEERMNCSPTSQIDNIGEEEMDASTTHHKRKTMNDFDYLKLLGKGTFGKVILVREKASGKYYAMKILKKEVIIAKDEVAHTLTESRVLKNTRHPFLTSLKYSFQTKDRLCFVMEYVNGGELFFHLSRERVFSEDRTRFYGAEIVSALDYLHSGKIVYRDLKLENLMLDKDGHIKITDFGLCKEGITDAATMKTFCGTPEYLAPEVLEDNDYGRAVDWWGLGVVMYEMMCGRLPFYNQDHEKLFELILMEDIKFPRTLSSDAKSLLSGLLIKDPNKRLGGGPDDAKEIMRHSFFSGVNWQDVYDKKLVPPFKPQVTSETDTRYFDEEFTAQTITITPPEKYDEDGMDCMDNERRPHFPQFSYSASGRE
Sequence of DYRK1B (human) (Q9Y463 whole entry, looked up): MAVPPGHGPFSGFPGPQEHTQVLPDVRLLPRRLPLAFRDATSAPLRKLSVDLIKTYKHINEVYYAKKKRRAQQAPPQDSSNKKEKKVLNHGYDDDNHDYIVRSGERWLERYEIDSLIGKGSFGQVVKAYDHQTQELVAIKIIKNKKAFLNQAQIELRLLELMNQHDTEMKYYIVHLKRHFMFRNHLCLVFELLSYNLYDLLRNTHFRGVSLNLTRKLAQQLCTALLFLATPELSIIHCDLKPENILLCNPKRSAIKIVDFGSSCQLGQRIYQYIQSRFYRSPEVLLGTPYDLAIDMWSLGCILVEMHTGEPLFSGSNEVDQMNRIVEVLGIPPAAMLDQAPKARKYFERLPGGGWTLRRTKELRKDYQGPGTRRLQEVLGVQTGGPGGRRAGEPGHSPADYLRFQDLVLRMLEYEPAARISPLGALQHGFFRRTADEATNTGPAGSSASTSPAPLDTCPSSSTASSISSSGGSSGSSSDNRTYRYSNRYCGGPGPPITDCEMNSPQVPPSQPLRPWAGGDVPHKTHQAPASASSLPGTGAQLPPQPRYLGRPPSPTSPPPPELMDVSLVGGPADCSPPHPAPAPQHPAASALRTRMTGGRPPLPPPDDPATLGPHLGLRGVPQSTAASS
Sequence of PASK (human) (Q96RG2 whole entry, looked up): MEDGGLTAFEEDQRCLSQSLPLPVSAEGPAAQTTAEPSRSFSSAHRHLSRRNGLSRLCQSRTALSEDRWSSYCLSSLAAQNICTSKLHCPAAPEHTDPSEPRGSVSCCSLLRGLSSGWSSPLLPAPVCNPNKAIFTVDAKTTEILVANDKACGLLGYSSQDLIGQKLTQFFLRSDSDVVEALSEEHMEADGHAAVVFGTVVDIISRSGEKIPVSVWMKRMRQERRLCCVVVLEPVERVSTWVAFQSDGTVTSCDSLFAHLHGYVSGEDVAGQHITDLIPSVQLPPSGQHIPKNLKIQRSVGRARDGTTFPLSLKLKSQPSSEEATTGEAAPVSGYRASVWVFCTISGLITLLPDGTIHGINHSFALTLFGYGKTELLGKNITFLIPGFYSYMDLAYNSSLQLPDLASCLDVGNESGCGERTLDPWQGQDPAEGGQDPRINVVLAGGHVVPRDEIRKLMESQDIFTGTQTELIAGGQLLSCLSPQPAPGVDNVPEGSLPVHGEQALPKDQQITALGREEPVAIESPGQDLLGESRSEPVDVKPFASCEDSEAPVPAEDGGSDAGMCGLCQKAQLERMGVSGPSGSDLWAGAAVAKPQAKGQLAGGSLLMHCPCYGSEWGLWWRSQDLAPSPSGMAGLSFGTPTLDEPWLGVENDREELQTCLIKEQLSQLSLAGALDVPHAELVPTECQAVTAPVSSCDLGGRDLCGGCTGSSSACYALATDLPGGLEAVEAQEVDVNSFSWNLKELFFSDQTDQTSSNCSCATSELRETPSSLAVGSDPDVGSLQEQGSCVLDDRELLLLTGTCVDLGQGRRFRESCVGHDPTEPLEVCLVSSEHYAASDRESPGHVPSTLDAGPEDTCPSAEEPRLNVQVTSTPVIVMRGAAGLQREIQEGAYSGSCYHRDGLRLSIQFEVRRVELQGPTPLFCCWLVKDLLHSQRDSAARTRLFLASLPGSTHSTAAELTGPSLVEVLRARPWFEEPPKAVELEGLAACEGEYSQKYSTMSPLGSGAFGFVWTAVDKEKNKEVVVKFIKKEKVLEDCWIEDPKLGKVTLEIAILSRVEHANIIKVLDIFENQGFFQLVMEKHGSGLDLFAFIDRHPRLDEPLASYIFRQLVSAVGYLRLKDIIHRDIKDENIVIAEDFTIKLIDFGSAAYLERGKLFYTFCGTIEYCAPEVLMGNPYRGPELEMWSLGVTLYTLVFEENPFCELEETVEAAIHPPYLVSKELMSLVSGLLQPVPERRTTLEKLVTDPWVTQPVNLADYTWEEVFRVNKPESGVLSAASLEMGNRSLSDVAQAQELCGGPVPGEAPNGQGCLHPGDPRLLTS
Sequence of STK16 (human) (O75716 whole entry, looked up): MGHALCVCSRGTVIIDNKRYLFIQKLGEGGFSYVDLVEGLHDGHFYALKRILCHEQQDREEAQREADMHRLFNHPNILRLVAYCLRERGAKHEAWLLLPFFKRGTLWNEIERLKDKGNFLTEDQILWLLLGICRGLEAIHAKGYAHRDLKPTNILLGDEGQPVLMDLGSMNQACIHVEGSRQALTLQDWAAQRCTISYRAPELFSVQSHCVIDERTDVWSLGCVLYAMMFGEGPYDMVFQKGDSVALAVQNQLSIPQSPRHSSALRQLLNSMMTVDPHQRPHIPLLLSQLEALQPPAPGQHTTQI
Sequence of NEK6 (human) (Q9HC98 whole entry, looked up): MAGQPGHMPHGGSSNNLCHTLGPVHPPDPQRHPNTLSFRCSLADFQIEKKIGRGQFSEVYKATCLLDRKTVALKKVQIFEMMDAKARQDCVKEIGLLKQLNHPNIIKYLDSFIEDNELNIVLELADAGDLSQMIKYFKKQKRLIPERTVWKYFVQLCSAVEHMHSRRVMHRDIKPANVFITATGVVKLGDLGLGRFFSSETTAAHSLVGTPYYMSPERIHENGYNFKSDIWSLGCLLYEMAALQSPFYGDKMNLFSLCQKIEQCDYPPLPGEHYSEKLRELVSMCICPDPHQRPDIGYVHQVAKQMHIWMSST

O=C(Nc1cccc(Nc2cc(Nc3cccc(C(F)(F)F)c3)ncn2)c1)C1CC1
residual activity [1]: 101% | residual activity [2]: 99% | residual activity [3]: 104% | residual activity [4]: 94.9% | residual activity [5]: 101% | residual activity [6]: 100% | residual activity [7]: 98.3% | residual activity [8]: 95.9% | residual activity [9]: 105% | residual activity [10]: 100% | residual activity [11]: 98.2% | residual activity [12]: 105% | residual activity [13]: 99.2% | residual activity [14]: 106% | residual activity [15]: 97.2% | residual activity [16]: 108% | residual activity [17]: 105% | residual activity [18]: 104% | residual activity [19]: 98.9% | residual activity [20]: 99.5% | residual activity [21]: 101% | residual activity [22]: 103% | residual activity [23]: 101% | residual activity [24]: 97.1% | residual activity [25]: 109% | residual activity [26]: 98% | residual activity [27]: 97.3% | residual activity [28]: 99.9% | residual activity [29]: 99.4% | residual activity [30]: 97.4% | residual activity [31]: 80.8% | residual activity [32]: 102% | residual activity [33]: 100% | residual activity [34]: 96.9% | residual activity [35]: 97.9% | residual activity [36]: 99.4% | residual activity [37]: 99% | residual activity [38]: 97.6% | residual activity [39]: 101% | residual activity [40]: 107% | residual activity [41]: 99.2% | residual activity [42]: 105%

CCN(CC)CCCCN1c2ccccc2Oc2ccc(Cl)cc21
residual activity [1]: 106% | residual activity [2]: 97% | residual activity [3]: 106% | residual activity [4]: 97.6% | residual activity [5]: 101% | residual activity [6]: 102% | residual activity [7]: 76.6% | residual activity [8]: 101% | residual activity [9]: 101% | residual activity [10]: 94.4% | residual activity [11]: 105% | residual activity [12]: 101% | residual activity [13]: 107% | residual activity [14]: 94.3% | residual activity [15]: 101% | residual activity [16]: 101% | residual activity [17]: 96% | residual activity [18]: 194% | residual activity [19]: 89.6% | residual activity [20]: 104% | residual activity [21]: 93.7% | residual activity [22]: 87.5% | residual activity [23]: 99.8% | residual activity [24]: 94.4% | residual activity [25]: 96.3% | residual activity [26]: 100% | residual activity [27]: 105% | residual activity [28]: 101% | residual activity [29]: 103% | residual activity [30]: 97.2% | residual activity [31]: 89.7% | residual activity [32]: 96.1% | residual activity [33]: 97.9% | residual activity [34]: 99.2% | residual activity [35]: 96.5% | residual activity [36]: 94.3% | residual activity [37]: 86.3% | residual activity [38]: 99% | residual activity [39]: 111% | residual activity [40]: 95.2% | residual activity [41]: 102% | residual activity [42]: 95.7%

Oc1ccc(Nc2nc(-c3ccc(Cl)cc3)cs2)cc1
residual activity [1]: 100% | residual activity [2]: 104% | residual activity [3]: 105% | residual activity [4]: 93.8% | residual activity [5]: 98.5% | residual activity [6]: 107% | residual activity [7]: 131% | residual activity [8]: 101% | residual activity [9]: 106% | residual activity [10]: 91.1% | residual activity [11]: 98.3% | residual activity [12]: 99.4% | residual activity [13]: 95.2% | residual activity [14]: 107% | residual activity [15]: 87.8% | residual activity [16]: 111% | residual activity [17]: 112% | residual activity [18]: 111% | residual activity [19]: 99.5% | residual activity [20]: 101% | residual activity [21]: 101% | residual activity [22]: 97.6% | residual activity [23]: 103% | residual activity [24]: 92.7% | residual activity [25]: 99% | residual activity [26]: 95.9% | residual activity [27]: 102% | residual activity [28]: 91.2% | residual activity [29]: 105% | residual activity [30]: 99.9% | residual activity [31]: 96.4% | residual activity [32]: 96.4% | residual activity [33]: 97.1% | residual activity [34]: 106% | residual activity [35]: 100% | residual activity [36]: 82.3% | residual activity [37]: 95.2% | residual activity [38]: 96.3% | residual activity [39]: 103% | residual activity [40]: 106% | residual activity [41]: 83.3% | residual activity [42]: 104%

O=C1NC(=O)C(c2cn(CCCO)c3ncccc23)=C1c1cnccn1
residual activity [1]: 87.1% | residual activity [2]: 74% | residual activity [3]: 105% | residual activity [4]: 60% | residual activity [5]: 90.1% | residual activity [6]: 99.7% | residual activity [7]: 97.1% | residual activity [8]: 91.2% | residual activity [9]: 93.2% | residual activity [10]: 83.1% | residual activity [11]: 100% | residual activity [12]: 141% | residual activity [13]: 94.2% | residual activity [14]: 96.5% | residual activity [15]: 88.3% | residual activity [16]: 101% | residual activity [17]: 122% | residual activity [18]: 129% | residual activity [19]: 97.8% | residual activity [20]: 97.8% | residual activity [21]: 82.1% | residual activity [22]: 99.9% | residual activity [23]: 121% | residual activity [24]: 96.4% | residual activity [25]: 54.5% | residual activity [26]: 98.4% | residual activity [27]: 98.9% | residual activity [28]: 81.7% | residual activity [29]: 101% | residual activity [30]: 98.5% | residual activity [31]: 90.9% | residual activity [32]: 67% | residual activity [33]: 132% | residual activity [34]: 101% | residual activity [35]: 114% | residual activity [36]: 89.4% | residual activity [37]: 98.8% | residual activity [38]: 96.9% | residual activity [39]: 94.5% | residual activity [40]: 90.3% | residual activity [41]: 115% | residual activity [42]: 103%

Source: the kinase profiling compilation of Christmann-Franck et al. (2016)
